Test results: ChEMBL document CHEMBL5214895, “3-Hydroxy-propanamidines, a New Class of Orally Active Antimalarials Targeting Plasmodium falciparum” (J Med Chem, 2021)
Active and inactive are the calls of the source. The rule behind the calls is not given here.

Columns and labels:
[1] = Metabolic stability in human liver microsomes assessed as parent compound remaining at 2 uM incubated for 40 mins in presence of NADPH by LC-MS/MS analysis; format: ADME, Microsome; conditions: read-out: Stability
[2] = Elimination half life in mouse infected with Plasmodium berghei at 10 mg/kg, po administered as single dose and measured for 24 hrs by LC-MS/MS analysis; format: ADME, organism-based; conditions: in vivo, read-out: beta t1/2 (converted)
Plasmodium falciparum [3] = test: Antiplasmodial activity against chloroquine-sensitive asexual blood stage Plasmodium falciparum 3D7 assessed as inhibition of parasite growth incubated for […] by HRP2-ELISA; format: functional, organism-based
Plasmodium berghei [4] = test: Antimalarial activity against Plasmodium berghei infected in mouse assessed as reduction in parasitemia in blood at 30 mg/kg, po administered for 4 times starting from 4 to 72 hrs and measured after 96 hrs post infection (reference value: 0%); format: functional; design: scale not given: the % may be the effect or the level left
[5] = Observed AUC(0 to infinity) in mouse infected with Plasmodium berghei at 30 mg/kg, po administered as single dose and measured for 24 hrs by LC-MS/MS analysis; format: ADME, organism-based; design: dose 30 mg/kg, time 24 hrs, route po; conditions: in vivo
Plasmodium falciparum [6] = test: Antiplasmodial activity against multidrug resistant asexual blood stage Plasmodium falciparum Dd2-B2 assessed as inhibition of parasite growth incubated for 72 hrs by SYBR green-based assay; format: functional, organism-based; conditions: Dd2-B2, 72 h
[7] = AUC(0 to t) in mouse infected with Plasmodium berghei at 3 mg/kg, po administered as single dose and measured for 24 hrs by LC-MS/MS analysis; format: ADME, organism-based; design: dose 3 mg/kg, time 24 hrs, route po; conditions: in vivo
Plasmodium berghei [8] = test: Antimalarial activity against Plasmodium berghei infected in mouse assessed as reduction in parasitemia in blood at 3 mg/kg, po administered for 4 times starting from 4 to 72 hrs and measured after 96 hrs post infection (reference value: 0 %); format: functional; design: scale not given: the % may be the effect or the level left
[9] = Cmax in mouse infected with Plasmodium berghei at 10 mg/kg, po administered as single dose and measured for 24 hrs by LC-MS/MS analysis; format: ADME, organism-based; design: dose 10 mg/kg, time 24 hrs, route po; conditions: in vivo
Plasmodium berghei [10] = test: Antimalarial activity against Plasmodium berghei infected in mouse assessed as reduction in parasitemia in blood at 10 mg/kg, po administered for 4 times starting from 4 to 72 hrs and measured after 96 hrs post infection (reference value: 0%); format: functional; design: scale not given: the % may be the effect or the level left
Plasmodium berghei [11] = test: Antimalarial activity against Plasmodium berghei infected in mouse assessed as mean survival days at 30 mg/kg, po administered for 4 times starting from 4 to 72 hrs and monitered for 30 days (reference value: 4 days); format: functional; conditions: time 30 day
[12] = Cytotoxicity against human HepG2 cells assessed as inhibition of cell growth incubated for 24 hrs by neutral red dye based analysis; format: toxicity
Plasmodium falciparum [13] = test: Induction of drug resistance in Plasmodium falciparum Dd2 clone FL2-C4 assessed as fold increase in IC50 incubated for 72 hrs by SYBR green-based assay; format: functional
[14] = AUC(0 to t) in mouse infected with Plasmodium berghei at 10 mg/kg, po administered as single dose and measured for 24 hrs by LC-MS/MS analysis; format: ADME, organism-based; design: time 24 hrs, dose 10 mg/kg, route po; conditions: in vivo
[15] = Metabolic stability in human liver microsomes assessed as intrinsic clearance; format: ADME, Microsome
[16] = Observed AUC(0 to infinity) in mouse infected with Plasmodium berghei at 10 mg/kg, po administered as single dose and measured for 24 hrs by LC-MS/MS analysis; format: ADME, organism-based; design: dose 10 mg/kg, time 24 hrs, route po; conditions: in vivo
[17] = AUC(0 to t) in mouse infected with Plasmodium berghei at 30 mg/kg, po administered as single dose and measured for 24 hrs by LC-MS/MS analysis; format: ADME, organism-based; design: dose 30 mg/kg, time 24 hrs, route po; conditions: in vivo
Plasmodium falciparum [18] = test: Antiplasmodial activity against multidrug resistant asexual blood stage Plasmodium falciparum Dd2 assessed as inhibition of parasite growth incubated for […] by HRP2-ELISA; format: functional, organism-based
[19] = Half life in mouse infected with Plasmodium berghei at 3 mg/kg, po administered as single dose and measured for 24 hrs by LC-MS/MS analysis; format: ADME, organism-based; conditions: in vivo
[20] = Cmax in mouse infected with Plasmodium berghei at 30 mg/kg, po administered as single dose and measured for 24 hrs by LC-MS/MS analysis; format: ADME, organism-based; design: dose 30 mg/kg, time 24 hrs, route po; conditions: in vivo
Plasmodium falciparum [21] = test: Antiplasmodial activity against hyper mutating Plasmodium falciparum Dd2 harboring proofreading-deficient DNA polymerase delta assessed as inhibition of parasite growth incubated for 72 hrs by SYBR green-based assay; format: functional, organism-based; conditions: Dd2, 72 h
[22] = Elimination half life in mouse infected with Plasmodium berghei at 3 mg/kg, po administered as single dose and measured for 24 hrs by LC-MS/MS analysis; format: ADME, organism-based; conditions: in vivo, read-out: beta t1/2 (converted)
[23] = Chemical stability of compound in Tween20/ethanol/phosphate buffer at pH 2 assessed as drug degradation measured over 24 hrs; format: physicochemical; conditions: read-out: Drug degradation
[24] = Chemical stability of compound in Tween20/ethanol/phosphate buffer at pH 7.5 assessed as drug degradation measured over 24 hrs; format: physicochemical; conditions: read-out: Drug degradation
Plasmodium falciparum [25] = test: Inhibition of hemozoin formation in sorbitol-synchronized early ring stage plasmodium falciparum NF54 trophozoites assessed as increase in free heme level at 2.5 times IC50 incubated for 28 hrs by flow cytometry analysis; format: functional
[26] = target: Voltage-gated inwardly rectifying potassium channel KCNH2 (Homo sapiens, UniProt Q12809); test: Inhibition of hERG by fluorescence polarization assay; format: toxicity
[27] = Half life in mouse infected with Plasmodium berghei at 30 mg/kg, po administered as single dose and measured for 24 hrs by LC-MS/MS analysis; format: ADME, organism-based; conditions: in vivo
Plasmodium berghei [28] = test: Antimalarial activity against Plasmodium berghei infected in mouse assessed as mean survival days at 50 mg/kg, po administered for 4 times starting from 4 to 72 hrs and monitered for 30 days (reference value: 4 days); format: functional; conditions: time 30 day
Plasmodium falciparum [29] = test: Induction of drug resistance in Plasmodium falciparum Dd2 clone FL3-C3 assessed as fold increase in IC50 incubated for 72 hrs by SYBR green-based assay; format: functional
[30] = Cytotoxicity against human HeLa cells assessed as inhibition of cell growth incubated for 24 hrs by neutral red dye based analysis; format: toxicity
[31] = Tmax in mouse infected with Plasmodium berghei at 3 mg/kg, po administered as single dose and measured for 24 hrs by LC-MS/MS analysis; format: ADME, organism-based; conditions: in vivo
[32] = Tmax in mouse infected with Plasmodium berghei at 10 mg/kg, po administered as single dose and measured for 24 hrs by LC-MS/MS analysis; format: ADME, organism-based; conditions: in vivo
[33] = Selectivity index, ratio of IC50 for cytotoxicity against human HepG2 cells to IC50 for antiplasmodial activity against chloroquine-sensitive asexual blood stage Plasmodium falciparum 3D7; format: toxicity, cell-based; conditions: read-out: Ratio IC50
[34] = Cytotoxicity against HEK293 cells assessed as inhibition of cell growth incubated for 24 hrs by neutral red dye based analysis; format: toxicity; conditions: human
[35] = Half life in mouse infected with Plasmodium berghei at 10 mg/kg, po administered as single dose and measured for 24 hrs by LC-MS/MS analysis; format: ADME, organism-based; conditions: in vivo
[36] = Cmax in mouse infected with Plasmodium berghei at 3 mg/kg, po administered as single dose and measured for 24 hrs by LC-MS/MS analysis; format: ADME, organism-based; design: time 24 hrs, dose 3 mg/kg, route po; conditions: in vivo
[37] = Elimination half life in mouse infected with Plasmodium berghei at 30 mg/kg, po administered as single dose and measured for 24 hrs by LC-MS/MS analysis; format: ADME, organism-based; conditions: in vivo, read-out: beta t1/2 (converted)
[38] = Tmax in mouse infected with Plasmodium berghei at 30 mg/kg, po administered as single dose and measured for 24 hrs by LC-MS/MS analysis; format: ADME, organism-based; conditions: in vivo
Plasmodium berghei [39] = test: Antimalarial activity against Plasmodium berghei infected in mouse assessed as reduction in parasitemia in blood at 50 mg/kg, po administered for 4 times starting from 4 to 72 hrs and measured after 96 hrs post infection (reference value: 0%); format: functional; design: scale not given: the % may be the effect or the level left
Plasmodium falciparum [40] = test: Antiplasmodial activity against sorbitol-synchronized early ring stage plasmodium falciparum NF54 trophozoites assessed as inhibition of parasite growth incubated for 72 hrs by SYBR green-based parasite susceptibility assay; format: functional, organism-based; conditions: NF54, 72 h
Plasmodium falciparum [41] = test: Inhibition of hemozoin formation in sorbitol-synchronized early ring stage plasmodium falciparum NF54 trophozoites assessed as reduction in hemozoin level at 2.5 times IC50 incubated for 28 hrs by flow cytometry analysis; format: functional
[42] = Observed AUC(0 to infinity) in mouse infected with Plasmodium berghei at 3 mg/kg, po administered as single dose and measured for 24 hrs by LC-MS/MS analysis; format: ADME, organism-based; design: dose 3 mg/kg, time 24 hrs, route po; conditions: in vivo

Chain of Voltage-gated inwardly rectifying potassium channel KCNH2 (Q12809 whole entry): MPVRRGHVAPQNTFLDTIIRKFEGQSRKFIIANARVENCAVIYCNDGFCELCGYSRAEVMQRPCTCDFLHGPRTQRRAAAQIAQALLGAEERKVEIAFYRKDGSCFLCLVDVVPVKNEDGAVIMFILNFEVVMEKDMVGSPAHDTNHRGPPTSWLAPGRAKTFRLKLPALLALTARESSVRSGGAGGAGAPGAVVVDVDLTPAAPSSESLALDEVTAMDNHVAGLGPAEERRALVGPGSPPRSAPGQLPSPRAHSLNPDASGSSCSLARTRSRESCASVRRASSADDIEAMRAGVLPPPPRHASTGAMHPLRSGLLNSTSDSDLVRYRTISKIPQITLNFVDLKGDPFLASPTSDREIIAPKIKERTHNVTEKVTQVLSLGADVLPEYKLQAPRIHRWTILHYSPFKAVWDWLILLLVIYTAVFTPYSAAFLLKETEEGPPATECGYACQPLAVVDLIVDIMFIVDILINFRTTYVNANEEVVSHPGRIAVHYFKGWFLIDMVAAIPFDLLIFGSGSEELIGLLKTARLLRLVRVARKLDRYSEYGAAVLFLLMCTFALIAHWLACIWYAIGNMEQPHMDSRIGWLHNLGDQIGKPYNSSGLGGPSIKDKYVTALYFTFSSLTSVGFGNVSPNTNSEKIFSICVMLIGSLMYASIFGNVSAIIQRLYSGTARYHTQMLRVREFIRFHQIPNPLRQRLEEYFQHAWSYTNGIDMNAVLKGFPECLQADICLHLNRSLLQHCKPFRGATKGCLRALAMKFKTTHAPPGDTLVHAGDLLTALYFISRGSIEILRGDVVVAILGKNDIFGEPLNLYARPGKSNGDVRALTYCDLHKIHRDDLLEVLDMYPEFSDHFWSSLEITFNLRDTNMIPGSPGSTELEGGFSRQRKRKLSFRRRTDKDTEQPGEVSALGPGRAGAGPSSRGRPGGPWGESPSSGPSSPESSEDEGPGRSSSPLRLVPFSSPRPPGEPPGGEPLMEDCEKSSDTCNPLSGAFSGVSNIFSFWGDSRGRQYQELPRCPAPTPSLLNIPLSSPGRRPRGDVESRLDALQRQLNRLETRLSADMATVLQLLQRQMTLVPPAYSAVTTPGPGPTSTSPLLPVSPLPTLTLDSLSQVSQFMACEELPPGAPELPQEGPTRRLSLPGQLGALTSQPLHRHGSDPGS

With `COc1ccc(/N=C(\N)CC(O)c2cc3c(F)cc(F)cc3c3cc(C(F)(F)F)ccc23)cc1.Cl` (configuration not stated) the remaining at 40 min, 2 µM [1] was 86%, the half-life [2] was 7.91 min and the IC50 (Plasmodium falciparum [3]) was 5 nM. It also gave an Activity (Plasmodium berghei [4]) of 99.9%, an AUC [5] of 848.1 ng·h/mL and an IC50 (Plasmodium falciparum [6]) of 15.3 nM. For the same compound, the AUCt [7] was 20.4 ng·h/mL, the Activity (Plasmodium berghei [8]) was 0% and the Cmax [9] was 23 ng/mL. It also gave an Activity (Plasmodium berghei [10]) of 99.9%, an MSD (Plasmodium berghei [11]) of 17 days and an IC50 at 24 h [12] of 4300 nM. The fold change (FC) (Plasmodium falciparum [13]) was 3, the AUCt [14] was 192.1 ng·h/mL and the CLH [15] was 9 µL/min/mg. The AUC [16] was 199.7 ng·h/mL, the AUCt [17] was 783.1 ng·h/mL and the IC50 (Plasmodium falciparum [18]) was 12 nM. The t1/2 [19] was 313 min, the Cmax [20] was 57.3 ng/mL and the IC50 (Plasmodium falciparum [21]) was 15 nM. The half-life [22] was 7.58 min, the degraded at 24 h [23] was 0.1% and the degraded at 24 h [24] was 1%. The inhibition (Plasmodium falciparum [25]) was “Active”, the IC50 [26] was 190 nM and the t1/2 [27] was 421 min. For the same compound, the MSD (Plasmodium berghei [28]) was 27 days, the fold change (FC) (Plasmodium falciparum [29]) was 3 and the IC50 at 24 h [30] was 46100 nM. It also gave a Tmax [31] of 60 min, a Tmax [32] of 60 min and a selectivity ratio [33] of 860. For the same compound, the IC50 at 24 h [34] was 36800 nM, the t1/2 [35] was 248 min and the Cmax [36] was 3.3 ng/mL. The half-life [37] was 4.18 min, the Tmax [38] was 60 min and the Activity (Plasmodium berghei [39]) was 99.8%. For the same compound, the IC50 (Plasmodium falciparum [40]) was 8.4 nM, the inhibition (Plasmodium falciparum [41]) was “Active” and the AUC [42] was 21.5 ng·h/mL.
